Laboratory results from the NIST ThermoML archive (doi:10.1021/je800571y).

Assay: xn = mol fraction of the nth substance listed
Conditions: 101 kPa, Liquid

CCC(C)(C)O [2-methylbutan-2-ol] + CCC(C)=O
Conditions	mass density, 293.15 K [kg/m3]	mass density, 298.15 K [kg/m3]	mass density, 303.15 K [kg/m3]	mass density, 308.15 K [kg/m3]	mass density, 313.15 K [kg/m3]	viscosity, 293.15 K [mPa·s]	viscosity, 298.15 K [mPa·s]	viscosity, 303.15 K [mPa·s]	viscosity, 308.15 K [mPa·s]	viscosity, 313.15 K [mPa·s]
x2 = 0	809.61	805.01	800.41	795.81	791.21	5.108	4.474	3.909	3.387	2.909
x2 = 0.0803	809.22	804.57	799.94	795.3	790.63	3.81	3.35	2.9	2.521	2.26
x2 = 0.1583	808.84	804.15	799.49	794.82	790.09	2.862	2.521	2.14	1.905	1.7
x2 = 0.2341	808.48	803.74	799.06	794.36	789.57	2.105	1.85	1.53	1.421	1.287
x2 = 0.3077	808.13	803.35	798.85	793.92	789.06	1.558	1.37	1.09	1.103	0.9819
x2 = 0.3794	807.79	802.97	798.25	793.49	788.57	1.15	1.054	–	0.84	0.7418
x2 = 0.449	807.47	802.6	797.86	793.07	788.09	0.842	0.8221	0.6863	0.7188	0.5869
x2 = 0.5168	807.16	802.24	797.48	792.67	787.63	0.6725	0.6579	0.5601	0.5865	0.4801
x2 = 0.5828	806.85	801.89	796.12	792.27	787.18	0.5515	0.5913	0.5201	0.5202	0.4017
x2 = 0.6471	806.56	801.56	796.77	791.89	786.74	0.4986	0.5219	0.52	0.4801	0.3511
x2 = 0.7097	806.27	801.23	796.43	791.52	786.32	0.4935	0.4894	0.48	0.4507	–
x2 = 0.7707	805.99	800.91	796.08	791.15	785.9	0.4482	0.4437	0.4801	0.4505	0.323
x2 = 0.8302	805.71	800.6	795.75	790.79	785.49	0.4457	0.4344	0.4802	0.4503	0.3001
x2 = 0.8882	805.45	800.29	795.42	790.44	785.09	0.4464	0.3813	0.4402	0.4012	0.2999
x2 = 0.9448	805.18	799.99	795.11	790.1	784.7	0.4338	0.3142	0.3601	0.32	0.2997

CCC(C)=O [butanone] + CC(C)CO
Conditions	mass density, 293.15 K [kg/m3]	mass density, 298.15 K [kg/m3]	mass density, 303.15 K [kg/m3]	mass density, 308.15 K [kg/m3]	mass density, 313.15 K [kg/m3]	viscosity, 293.15 K [mPa·s]	viscosity, 298.15 K [mPa·s]	viscosity, 303.15 K [mPa·s]	viscosity, 308.15 K [mPa·s]	viscosity, 313.15 K [mPa·s]
x1 = 0.0684	801.9	797.93	794.21	790.04	786.54	3.138	2.611	2.24	1.913	1.625
x1 = 0.1365	802.11	798.06	794.25	790.03	786.39	2.429	2.054	1.78	1.534	1.33
x1 = 0.2044	802.32	798.18	794.29	790	786.22	1.862	1.566	1.404	1.193	1.074
x1 = 0.2721	802.52	798.29	794.32	789.98	786.06	1.426	1.206	1.104	0.9579	0.8538
x1 = 0.3395	802.72	798.41	794.36	789.95	785.89	1.111	0.9449	0.8637	0.7612	0.6894
x1 = 0.4066	802.92	798.52	794.39	789.92	785.73	0.8561	0.7513	0.676	0.6222	0.5674
x1 = 0.4735	803.13	798.63	794.42	789.89	785.56	0.7002	0.607	0.5418	0.5176	0.46
x1 = 0.5402	803.33	798.75	794.46	789.87	785.4	0.6142	0.5305	0.4663	0.4456	0.3948
x1 = 0.6066	803.54	798.87	794.49	789.85	785.23	0.538	0.4883	0.4135	0.4102	0.34
x1 = 0.6727	803.75	798.99	794.53	789.83	785.08	0.5271	0.4556	0.3743	0.3752	0.3138
x1 = 0.7387	803.97	799.12	794.58	789.82	784.92	0.5071	0.4444	0.3713	0.3573	0.2909
x1 = 0.8044	804.2	799.25	794.63	789.81	784.77	0.5079	0.4189	0.3607	0.3498	0.2754
x1 = 0.8698	804.43	799.4	794.68	789.8	784.62	0.4996	0.4217	0.3443	0.3334	0.28
x1 = 0.935	804.67	799.54	794.74	789.79	784.47	0.4722	0.3617	0.3135	0.3005	0.2769
x1 = 1	804.92	799.7	794.81	789.78	784.32	0.3956	0.2828	0.2666	0.2601	0.2545
